For assay [1], the system named is hemi-calvariae. As to the kind of experiment: Mouse calvaria organ culture assay (PGE2 ELISA, histology). The class given is cell-based, Swiss Webster mice. The settings on record: peptide 1, 10, 100 μg/mL daily for seven days. An excerpt:
Methods: Calvarial organ cultures have been used for many years to study the regulation of bone formation and bone resorption. An advantage of this method compared to in vivo studies is the absence of confounding effects (such as hormonal and mechanical influences) meaning a more direct effect of the test substances on bone tissue can be determined. Also compared to isolated cell systems, interrelationships between the different cell types in the bone and between these cells and the bone matrix are preserved.
Briefly, hemi-calvariae were isolated from 4 day old Swiss Webster mice and incubated in media on steel mesh grids. The peptide of SEQ ID NO. […] Samples of the conditioned media were collected daily for analysis of PGE2 concentration (R&D Systems ELISA kit). At the end of the culture the bones were analyzed for new bone formation and number of osteoblasts using histology.
On the technique in general: An ELISA detects its analyte on a solid surface through an enzyme-linked reagent.

The test system of assay [2] is COX-2 mRNA. The assay is described as follows: Gene expression microarray analysis in Clonetics hMSC cells. It counts as cell-based, human. The conditions noted are these: peptide 1000 ng/ml. The procedure:
Materials and Methods: The effect of the peptide of SEQ ID No. 8 treatment on gene expression was assessed in the Clonetics hMSC cells using gene expression microarray analysis as previously described (Locklin et al., 2001). Briefly, cells were plated in five T-150 vented flasks at a density of 1.0×10^6 cells per flask in growth medium and cultured at 37° C. for 48 hours. Flasks containing either vehicle alone or the peptide of SEQ ID No. 8 (1000 ng/ml) were cultured for 24 hr or for 48 h in standard differentiation medium. At each time point, the vehicle and treatment flasks were trypsinized, cells removed and total RNA was extracted for analysis via the Qiagen Rneasy Kit (Qiagen). 8 μg of total RNA were amplified and biotin labeled. The mixture was hybridized to a U95A human gene expression microarray (Affymetrix) containing probes for 12,600 human genes. The chips were then washed, stained with phycoerythrin-streptavidin and read with an Affymetrix scanner. Hybridization intensity values to mRNA frequency were calculated in molecules per million. Analysis of intensity values was conducted using Spotfire Decision Site (Somerville, Mass.) software.

Assay [3] concerns COX-2 mRNA. The settings on record: Nagel et al., Journal of Cellular Biochemistry, 2004; cited from earlier work.
The next assay concerns human mesenchymal cells. As to the kind of experiment: PGE2 in human mesenchymal cells in culture. The class given is cell-based. The settings on record: peptide alone.
Assay [4] has as its system hemi-calvariae. The settings on record: Middleton-Hardie et al., ASBMR 2005; cited from earlier work.
In assay [5] the test system is primary osteoblasts collected from fetal mouse calvaria. As to the kind of experiment: Alkaline phosphatase (ALP) activity in primary osteoblasts under suboptimal BMP-2. The class given is cell-based. The procedure:
The peptide of SEQ ID No. 8 was added to this culture system at 0, 0.2, 0.4, 1.0, 2.0, and 4.0 μM. The levels of ALP were evaluated on days 0, 3, and 7.

Assay [6] deals with MC3T3-E1 subclone 4 cells. The assay is described as follows: BMP-2 stimulated PGE2 production by MC3T3 cells (ELISA). The settings on record: 24 hours, with BMP-2. It counts as cell-based, mouse. On the procedure:
Methods: MC3T3-E1 subclone 4 cells are neonatal mouse derived calvarial preosteoblasts with fibroblast morphology. […] For this experiment the MC3T3 cells were plated 10^5 cells per well in 24 well plates in growth medium (alpha MEM+1 mM sodium pyruvate+10% fetal bovine serum (FBS)). After 24 hours of culture the media was removed and replaced with assay media (alphaMEM+1 mM sodium pyruvate+2% FBS) containing the test substances. Each test group utilized 4 wells. After incubation for a further 24 hours the media was removed and the levels of PGE2 were determined using an ELISA (R&D Systems).

Assay [7] deals with hard tissue forming cells. The assay is described as follows: Biological activities for the purpose of the invention (test not specified).
A further assay concerns dorsal muscle of mice. As to the kind of experiment: Ectopic bone formation in mouse dorsal muscle with implanted polymer. The class given is in vivo, ICR mice. An excerpt: It has been known that BMP causes bone formation when administered or implanted in mammals when given. The activity can be enhanced when given in the appropriate delivery vehicle.
The mice were sacrificed 3 weeks later and the newly formed bones were isolated for evaluation using soft X-ray radiograph and bone mineral density determination.

As to TDLQERGDNDISPFSGDGQPFKD [SEQ ID No. 8], in the assay with hemi-calvariae [1], the PGE2 production result is “significant increases”. In addition, in the assay with hemi-calvariae [1] (histology), the bone cell density entry was “significant increases”, the osteoblast surface entry is on record as “significant increases” and the “parameters of new bone formation” value was “significant increases”. The “COX-2 mRNA increase (summary in discussion)” value in the assay on COX-2 mRNA [2] was about 3 fold. Moreover, the “COX-2 mRNA increase” value in the assay with COX-2 mRNA [2] (24 h) amounted to 3.6 fold. Also, the “COX-2 mRNA increase” value with COX-2 mRNA [2] (48 h) stood at 2.2 fold. The “COX-2 in human mesenchymal stem cells” value in the assay on COX-2 mRNA [3] is “upregulated”. The PGE2 increase entry in the assay with human mesenchymal cells was “did not result in a significant increase”. Moreover, the “production of PGE2 in mouse calvaria organ culture assay” value in the assay with hemi-calvariae [4] is “dose dependently upregulated”. Also, in assay [5] (2 μM peptide with 25 ng/mL BMP-2), the “ALP activity increase as compared with BMP-2 treated cells without the peptide” value is listed as about 2 times. Moreover, in [5] (BMP-2 25 ng/mL plus peptide 0.2-4.0 μM, dose dependent), the “ALP activity in osteoblastic cells” value is “significantly increased”. In addition, the “BMP-2 induced PGE2 production” value in [6] is “increases”. The “Biological activities relative to other sequences” value in assay [7] is “highest activities”. The “Effect of the peptide on BMP-2 bone formation (size and mineral density of ectopic ossicles)” value in the assay with dorsal muscle of mice (3 μg BMP-2 in 30 mg polymer, peptide 50, 250 or 1250 μg, three weeks) is “significant enhancement”. Besides, in the assay on dorsal muscle of mice (3 μg rhBMP-2, varying amounts of peptide), the “Bone formation when peptide added to suboptimal dose of rhBMP-2” value was “significant and dose dependent increase”. Also, the “Efficacy of the peptide on bone formation (size and mineral density of ectopic ossicles)” value with dorsal muscle of mice (5 μg BMP-2 in 30 mg polymer, peptide 50, 250 or 1250 μg, three weeks) is recorded as “unclear”.
